From patent publication US20130245081A1, “Compositions and Methods for Treating Amyotrophic Lateral Sclerosis” (priority 2009, published 2013)

Experiment: clinical
Conditions: for CL/F / Fe / Ue / λz: Day 7, fasted; for CL renal: urine and plasma
Excerpt: A total of 54 subjects (30 subjects in Study CL001 and 24 subjects in Study CL002) were enrolled. Healthy, non-smoking, male and female subjects 30 to 60 years of age, inclusive, with normal or clinically acceptable physical examination and electrocardiogram (ECG) findings, systolic (90 to 140 mmHg) and diastolic (50 to 90 mmHg) blood pressure, and resting heart rate (50 to 100 bpm) who were willing to provide signed, written informed consent were eligible for enrollment. Female volunteers had to be of non-childbearing potential with negative pregnancy test results at screening and clinic check-in. Subjects with any history of neurodegenerative illnesses were excluded. The use of over-the-counter medications within 7 days prior to enrollment or prescription medications within 12 weeks prior to enrollment was prohibited.
In the second study, subjects were enrolled in 3 successive double-blind, placebo-controlled, panels of 8 subjects (n=6 active, n=2 placebo per panel).
Matching placebo capsules contained equivalent weights of microcrystalline cellulose. Capsules were administered orally with water. […] Subjects in the fasted cohorts were required to fast overnight for a minimum of 10 hours before dose administration. Subjects in the food cohort were required to fast overnight for a minimum of 10 hours before dose administration, with exception of the high fat/high calorie meal that was administered 30 minutes prior to drug administration. […] All available safety data were reviewed under blinded conditions to monitor for serious safety or tolerability events prior to proceeding with dose escalations.
In both studies, a complete collection was attempted for each urine sample interval.
Blood samples were collected into a 10 mL dipotassium ethylenediaminetetraacetic acid (K2-EDTA) Vacutainer® via an indwelling peripheral intravenous cannula or by direct venipuncture. Within 15 minutes of collection, the samples were centrifuged at 3000 rpm for 10 minutes at 4° C. After centrifugation, the plasma was divided into 2 aliquots of at least 1.5 mL each, placed into polypropylene containers, frozen, and stored at −20° C. until they were shipped for analysis.
Urine collected in each interval was well mixed, the pH was recorded, the total volume (or the weight and specific gravity) was recorded, and 2 aliquots of 20 mL each were collected into polypropylene containers and stored at −20° C. until they were shipped for analysis. All plasma and urine sample were shipped frozen on dry ice in 2 separate shipments per group (1 set of aliquots per shipment) to Eurofins AvTech Laboratories Inc. (Kalamazoo, Mich.) for bioanalytical analysis.
Plasma and urine concentrations were measured using validated liquid chromatography/mass spectrometry/mass spectrometry (LC/MS/MS) methods. […] The analytical procedure for analysis of plasma samples used a 100 μL aliquot of K2EDTA human plasma. The plasma sample was spiked with 20 μL of working internal standard solution and 20 μL of type 1 water for subject samples and QCs and 20 μL of the appropriate intermediate standard solution for standards. One hundred microliters ([…]) of 50% ammonium hydroxide solution was added to the sample followed by vortex mixing. One milliliter (1 mL) of tertbutyl methyl ether was then added and the sample was vortexed to extract the analyte and internal standard into the organic layer, followed by separation using flash freezing. The organic layer was decanted, evaporated to dryness, and the sample was reconstituted with 0.5 mL of reconstitution solution (0.1% ammonium hydroxide in 50:50 methanol; type 1 water (v/v/v)). A 10 μL aliquot of this reconstituted sample was injected into an LC/MS/MS system for analysis.

[1] = both, human, plasma, oral, 50 mg
[2] = both, human, plasma, oral, 100 mg
[3] = both, human, plasma, oral, 150 mg

With `CCCN[C@@H]1CCc2nc(N)sc2C1` [dexpramipexole, (6R)-2-amino-4,5,6,7-tetrahydro-6-(propylamino)benzothiazole] the CL/F (50 mg Twice Daily) was 437 ± 60.8 mL/min, the Fe (50 mg Twice Daily) was 87.2 ± 10.26 % dose and the Ue (50 mg Twice Daily) was 32.5 ± 3.82 mg. The λz (50 mg Twice Daily) was 0.1039 ± 0.0193 h⁻¹, the CL/F (100 mg Twice Daily) was 510 ± 57.4 mL/min and the Fe (100 mg Twice Daily) was 75.5 ± 3.51 % dose. For the same molecule, the Ue (100 mg Twice Daily) was 56.3 ± 2.62 mg, the λz (100 mg Twice Daily) was 0.0893 ± 0.0117 h⁻¹ and the CL/F (150 mg Twice Daily) was 507 ± 74.1 mL/min. It also gave a Fe (150 mg Twice Daily) of 89.6 ± 7.83 % dose, a Ue (150 mg Twice Daily) of 100.3 ± 8.76 mg and a λz (150 mg Twice Daily) of 0.0895 ± 0.0184 h⁻¹. For the same molecule, the “dose recovered in the urine as unchanged parent drug” value (12-hour steady-state dosing period) was “approximately 84%”, the AUC(0-t) [1] was 1450 ± 221 ng·h/mL and the Cmax at 7 day [1] was 191 ± 20.9 ng/mL. It also gave a Tmax [1] of 1.75 h, a Vd/F [1] of 255 ± 24 L and a half-life [1] of 6.87 ± 1.29 h. For the same molecule, the AUC(0-t) [2] was 2470 ± 304 ng·h/mL, the Cmax at 7 day [2] was 306 ± 54.8 ng/mL and the Tmax [2] was 2.02 h. For the same molecule, the Vd/F [2] was 348 ± 61.7 L, the half-life [2] was 7.89 ± 1.19 h and the AUC(0-t) [3] was 3750 ± 575 ng·h/mL. The Cmax [3] was 479 ± 74.6 ng/mL, the Tmax [3] was 2.18 h and the Vd/F [3] was 349 ± 75.8 L. For the same molecule, the half-life [3] was 8.05 ± 1.8 h, the CL renal (both, human, oral, 50 mg) was 385 ± 90.3 mL/min and the CL renal (both, human, oral, 100 mg) was 382 ± 62.7 mL/min. For the same molecule, the CL renal (both, human, oral, 150 mg) was 451 mL/min.
